How the values were obtained:
[1] = tested on: p53 in U87MG cells; assay: U87MG p53-elisa as described in EP1809622; assay type: cell-based; conditions: lowest dose giving at least 140% of the p53 value of the control
[2] = tested on: Male NMRI mice; assay: Ro-4-1284 antagonism in mice (drug induced neurological effects); assay type: in vivo; conditions: Ro-4-1284 antagonism in mice
Procedure: The test is a modification of a procedure described by Colpaert et al. (1975).^3 Male NMRI mice (22±3 g) were housed in macrolon observation cages (L×W×H: 11×12×17 cm; n=3 per cage). At the start of the experiments immediately before test compound administration, the initial body temperature of the mice was measured with a precision of 0.1° C. by inserting the thermo-sensitive probe (1.0 mm diameter) of an electric thermometer (Comark) to a constant depth of 3 cm into the esophagus until a stable reading was obtained. The right eye pupil diameter was measured with a graduated microscope and expressed in 1/24 mm units. Fifteen min after test compound administration, the mice were challenged with Ro-4-1284 (10 mg/kg, s.c.). Ro-4-1284 is a reserpine-like vesicular monoamine transport (VMAT-2) inhibitor, which rapidly depletes secretory vesicles.^3,4 Fifteen, 30 and 60 min after challenge, the mice were scored for palpebral opening (0, 1, 2, 3, 4, 5) and locomotor activity (−1, 0, 1, 2, 3). At the 60-min interval, immediately after the scoring of overt behavior, the right eye pupil diameter and the esophageal temperature were measured again. Abnormal phenomena such as intensive sniffing, chewing, rearing, hyperemia, piloerection, salivation, tremors, convulsions and death were noted (the latter phenomena were also noted when occurring before Ro-4-1284 administration). Criteria for drug-induced effects: reversal of ptosis: palpebral opening score >1 at 15, 30 or 60 min (2.7, 0.5 and 0% false positive controls, respectively; n>350); induction of prostration: score −1 for locomotion at 15, 30 or 60 min (never observed in controls); reversal of hypomotility: score >0 for locomotion at 15, 30 and 60 min (2.2, 0.8 and 0% false positive controls, respectively); reversal of miosis: pupil diameter >5 units at 60 min (0.8% false positives); potentiation of hypothermia: temperature decrease (over the 1-h time interval)>9.0° C. (1.4% false positives); reversal of hypothermia: temperature decrease <3.0° C. (1.8% false positives).
According to the standard procedure, R0-4-1284 is injected 15 min following subcutaneous or oral administration and observations start 15 min later. Doses are initially given to 3 animals. When at least 2 out of the 3 animals show activity for at least one of the observations, the compound is considered active.

[3] = tested on: p53 in A2780 cells; assay: p53 ELISA in A2780 cells (capacity to preserve p53); assay type: cell-based; conditions: lowest dose giving at least 140% of the p53 value of the control, 16 hours
Procedure: The capacity of the compounds to preserve p53 in A2780 cells was measured with the p53 enzyme linked immunosorbent assay. The p53 assay is a “sandwich” enzyme immunoassay employing two polyclonal antibodies. A polyclonal antibody, specific for the p53 protein, has been immobilized onto the surface of the plastic wells. Any p53 present in the sample to be assayed will bind to the capture antibody. The biotinylated detector polyclonal antibody also recognizes p53 protein, and will bind to any p53, which has been retained by the capture antibody. The detector antibody, in turn, is bond by horseradish peroxidase-conjugated streptavidin. The horseradish peroxidase catalyses the conversion of the chromogenic substrate o-phenylene diamine, the intensity of which is proportional to the amount of p53 protein bond to the plate. The colored reaction product is quantified using a spectrophotometer. Quantitation is achieved by the construction of a standard curve using known concentrations of purified recombinant HIS tagged p53 protein (see example C.1.).
A2780 cells (ATCC) were cultivated in RPMI 1640 supplemented with 10% fetal calf serum (FCS), 2 mM L-glutamine and gentamycin at 37° C. in a humidified incubator with 5% CO2.
A2780 cells were seeded at 20.000 cells per well in a 96 well plate, cultured for 24 hours and treated with compound for 16 hours at 37° C. in a humidified incubator. After incubation, the cells were washed once with phosphate-buffered saline and 30 μl, per well, low salt RIPA buffer (20 mM tris, pH7.0, 0.5 mM EDTA, 1% Nonidet P40, 0.5% DOC, 0.05% SDS, 1 mM PMSF, 1 μg/ml aprotinin and 0.5 μ/ml leupeptin) was added. Plates were placed on ice for 30 minutes to complete the lysis. p53 protein was detected in de lysates by using the sandwich ELISA, described below.
High binding polystyrene EIA/RIA 96 well plates (Costar 9018) were coated with the capture antibody pAb1801 (Abcam ab28-100) at a concentration of 1 μg/ml in coating buffer (0.1 M NaHCO3 pH8.2), 50 μl per well. The antibody was allowed to adhere overnight at 4° C. Coated plates were washed once with phosphate-buffered saline (PBS)/0.05% Tween 20 and 300 μl of blocking buffer (PBS, 1% bovine serum albumins (BSA)) was added, for an incubation period of 2 hours at room temperature. Dilutions of purified recombinant HIS tagged p53 protein, ranging from 3-200 ng/ml, were made in blocking buffer and used as standards.
Plates were washed twice with PBS/0.05% Tween 20 and blocking buffer or standards were added at 80 μl/well. To the standards, 20 μl of lysis buffer was added. The samples were added to the other wells at 20 μl lysate/well. After an overnight incubation at 4° C., plates were washed twice with PBS/0.05% Tween 20. Aliquots of 100 μl secondary polyclonal antibody p53(FL-393) (Tebubio, sc-6243) at a concentration of 1 μg/ml in blocking buffer were added to each well and allowed to adhere for 2 hours at room temperature. Plates were washed three times with PBS/0.05% Tween 20. Detection antibody anti-rabbit HRP (sc-2004, Tebubio) at 0.04 μg/ml in PBS/1% BSA was added and incubated for 1 hour at room temperature. Plates were washed three times with PBS/0.05% Tween 20 and 100 μl of substrate buffer was added (substrate buffer was prepared shortly before use by adding 1 tablet of 10 mg o-phenylene diamine (OPD) from Sigma and 125 μl 3% H2O2 to 25 ml OPD buffer: 35 mM citric acid, 66 mM Na2HPO4, pH5.6). After 5 to 10 minutes, colour reaction was stopped by adding 50 μl stop buffer (1 M H2SO4) per well. The absorbance at dual wavelengths of 490/655 nm was measured using a Biorad micro plate reader and the results were then analyzed.
For each experiment, controls (containing no drug) and a blank incubation (containing no cells or drugs) were run in parallel. The blank value was subtracted from all control and sample values. For each sample, the value of p53 (in absorbance units) was expressed as the percentage of the value for p53 present in the control. […]

Row | Compound | U87MG p53-elisa LAD [1] | drug induced neurological side effects [2] | A2780 p53-elisa LAD [3]
1 | Cc1cc(Nc2ccncc2)ccc1NCCc1c[nH]c2ccccc12 | 1.00E-05 | yes | 3.00E-06
2 | c1ccc2c(CCNc3ccc(Nc4ccncc4)cc3)c[nH]c2c1 | 3.00E-06 | yes | 1.00E-06
3 | Cc1cccc2c(CCNc3ccc(Nc4ccncc4)cc3)c[nH]c12 | 1.00E-06 | yes | 3.00E-07
